Entries after “also recorded” stand apart in the source; their conditions may differ.
Experiments:
liver culture slice = test: Ex vivo liver slice culture from Per2::LUC mice, lumicycle; type: cell-based, mouse; settings: 100 μM at Per2::LUC peak
Excerpt: (§1) Tissue culture, drug treatment and Real-Time Monitoring of Circadian Oscillations: 8 week-old male mPer2 Luciferase knockin mice were Sacrificed cervical dislocation. Then wipe the skin and neck with cotton containing 70% ethanol in a sterile hood. For SCN slice culture, firstly remove the eye balls from the head with scissors, decapitate and cut the skin. Then open the skull, remove all bone until the olfactory bulbs can be seen, cut the optic nerve between the olfactory bulbs and the hemispheres, and finally harvest the whole brain into ice cold HBSS. Trim the brain in HBSS by removing the cerebellum and olfactory bulbs. Attach the brain to a sample tray by glue with the rostral tip upwards and ventral surface closest to the cutting blade, then immediately fill the tray with ice cold HBSS and set the tray to the vibratome. Set the vibratome frequency at the maximum and the speed to the medium. To reach the SCN area quickly, the start cutting off thicker sections should be 500-800 μm. Reduce the sections thicker to 100 μm when the optic chiasm becomes wider. When the two SCN nuclei start to appear, collect the slice with transfer pipettes and check slices under dissecting microscope. […] Data was extract and analyzed with LumiCycle Analysis software. […]

[1] = Cordycepin concentration in CSF after intraperitoneal injection; type: in vivo
Excerpt: We measured the cordycepin concentration in cerebrospinal fluid (CSF) after the intraperitoneal (I.P.) injection.

SCN culture slice = test: Ex vivo SCN slice culture from Per2::LUC mice, lumicycle; type: cell-based, mouse
Excerpt: as §1

[2] = test system: Per2::LUC adult murine fibroblasts; test: Time-of-admission phase shift and amplitude in Per2::LUC adult murine fibroblasts; type: cell-based, mouse
Protocol: In above investigation, we found cordycepin (cordycepin-like nucleosides) shift the circadian phase, therefore it could be seemed as a circadian time giver (zeitgeiber). One prominent character of zeitgeiber is phase dependent function. Therefore, we further tested whether cordycepin also has the character. We use both transcriptional reporter (Per2:luc U2OS cells) translational reporter (Per2::LUC adult murine fibroblasts) model to investigate this character. The two reporter were seeded in 3.5 cm dish, transferred into lumicycle, and treated with cordycepin (100 μM in Per2:luc U2OS cells and 25 μM in Per2::LUC adult murine fibroblasts) every 2 hours from CT 0 to CT 24. 3 days after treatment and data analysis, we found in both reporter cells, cordycepin show highly “time-of-admission” dependent phase-change, 12 h phase shift when applied at CT10 and nearly 0 h phase shift when applied at CT 20 (F). […] To test this, we treated nearly damped Per2::LUC adult murine fibroblasts at CT 20 with DMSO or 25 μM cordycepin.

Per2:luc U2OS cells = test: Real-time monitoring of circadian oscillation in lumicycle, Per2:luc U2OS cells; type: cell-based, human
Protocol: Cell culture, drug treatment and Real-Time Monitoring of Circadian Oscillations: Per2-Luc reporter U2OS cells (D15) and Bmal1-Luc reporter U2OS cells (C26) cells were kept in DMEM medium (Gibco), supplemented with 10% FBS (Gibco) and 1% penicillin streptomycin mixture (Gibco). For Circadian Oscillation monitored with lumicycle (Actimetrics), cells were seeded at the density of 10^6 per 3.5 cm dish (Z688851-30EA). The medium was changed into XM medium (PH7.2, 10 mM HEPES, 350 mg/I bicarbonate, 1×B27, 100 IU/ml penicillin, 100 μg/ml streptomycin, 10 μg/ml gentamycin, and 100 μM d-Luciferin) 2 days after cell seeding. 3.5 cm dish was then sealed with high-vacuum grease (Dow Corning) and microscope cover glass, and transferred into lumicycle which was placed in an incubator (37° C.). For Drug treatment, 3.5 cm dish was taken out from lumicycle quickly at indicated time. After chemical was added into the medium, the dish was sealed again and put back into lumicycle. For Circadian Oscillation monitored with Tecan (Perkinelmer), cells were seeded at the density of […] per well for 384-well plate (CLS3610-48EA). 2 days later, the medium was changed into premixed XM medium with different chemicals with or without pentostatin (5 μg/ml). The plate was then sealing with sealing film (Sangon Biotech) and put into Tecan. Data from cells were collected in the Tecan luminometer at 37° C. for 5˜7 days.
The inventors conducted a chemical screen using the human osteosarcoma U2OS cell line so as to discover small molecules that modify the phase of the intracellular clock in mammals. In the primary screen, the inventors used two reporter lines of U2OS harboring a luciferase gene under control of either Per2 or Bmal1 promoter (named Per2-dLuc or Bmal1-dLuc cells), and set the threshold for at least 6 h phase-changes with no apparent amplitude-reduction in both cell lines. […] An institutional pilot chemical library consisting of approximately 10,000 small molecules was applied in this study. […] The inventors set to allow a free-run of the clock before administration of the compound over the course in order to eliminate the possibility that this phase-changing phenomenon was due to a combinative phenotype of medium-change plus the compound effect.
Circadian clock is a transcriptional based feedback loop, however different clock genes contain different cis-element and may show different response to the same stimulation. […] Since the close similar structure with adenosine and potential function of inhibiting transcription by preventing mRNA elongation, we tested whether adenosine and other deoxynucleoside could shift circadian phase. […] Therefore we further tested whether cordycepin utilize adenosine transporter to enter cell or utilize adenosine deaminase to degrade.
One prominent character of zeitgeiber is phase dependent function. Therefore, we further tested whether cordycepin also has the character.

[3] = test system: Per2-Luc reporter U2OS cells (D15); test: Circadian phase shift cell assay in D15 cells, 384 well plate, Tecan, with or without pentostatin; type: cell-based, human

For `Nc1ncnc2c1ncn2[C@@H]1O[C@H](CO)C[C@H]1O` [Cordycepin, 3′-deoxy-adenosine], the “clock phase of liver slice versus DMSO” value (liver culture slice) was “totally antiphase”, the “time of detection in the CSF after the injection” value [1] was ≤ 15 min and the “clock phase of SCN slice” value (SCN culture slice) was “significant phase-shift with lower amplitude; also recorded: totally antiphase”. The phase shift ([2]; 25 μM applied at CT10) was 12 h, the phase shift ([2]; 25 μM applied at CT 20) was ~0 h and the amplitude ([2]; 25 μM at CT 20, nearly damped fibroblasts) was “increase the amplitude”. The phase shift (Per2:luc U2OS cells; 100 μM applied at CT10) was 12 h, the phase shift (Per2:luc U2OS cells; 100 μM applied at CT 20) was ~0 h and the Per2-dLuc phase shift (Per2:luc U2OS cells; applied at Per2 peak, 100 μM) was 12 h. The Per2-dLuc phase shift (Per2:luc U2OS cells; applied at Per2 trough) was 0 h, the “amplitude of Per2-dLuc” value (Per2:luc U2OS cells; applied at Per2 trough) was “increase the amplitude” and the “concentration of eliciting 12 h phase shift (potency)” value ([3]; pentostatin containing medium (5 μg/ml)) was 200 nM. For the same compound, the “concentration of eliciting 12 h phase shift (potency)” value ([3]; pentostatin containing medium (5 μg/ml), listed as cordycepin) was 180 nM and the “concentration of eliciting 12 h phase shift (potency)” value ([3]; without pentostatin) was 25000 nM.

Reference: US12667584B2, “Adenosine analog and its use in regulating the circadian clock” (NATIONAL INSTITUTE OF BIOLOGICAL SCIENCES, BEIJING, priority 2017, dated 2026)
